# Source: patent US5089623A, “Certain imidate insecticides” (Imperial Chemical Industries Plc, priority 1990, dated 1992)
# Tests used:
# Assay type in all cases: in vivo
# [1] = tested on: Housefly [Musca domestica]; assay: Housefly insecticidal test (HF); settings: per 25 female houseflies, 48 hours
# [2] = tested on: Tobacco Budworm [Heliothis virescens (Fabricius)] eggs; assay: Tobacco budworm egg test (TBW-E); settings: percent in solution
# From the text: Eggs: Paper towel patches of 2-day old eggs of the tobacco budworm were dipped in acetone solutions of the test compound and placed in petri dishes containing a portion of larval rearing medium. […] Test concentrations ranged from 0.1% downward.
# [3] = tested on: Cabbage Looper [Trichoplusia ni (Hubner)]; assay: Cabbage looper test (CL); settings: second-instar larvae, 3-5 days, percent in solution
Compound,LC50 HF [1],LC50 TBW E [2],LC50 CL [3]
CC(C)C(=Nc1cccc(Br)c1)OCc1cccc(Oc2ccc(F)cc2)c1 [Compound 229],20 µg,> 0.1%,0.0005%
Cc1ccc(Oc2cccc(COC(=Nc3ccc(F)cc3)C(C)C)c2)cc1 [Compound 231],> 100 µg,> 0.1%,0.003%
CC(C)C(=Nc1c(F)c(F)c(F)c(F)c1F)OCc1cccc(Oc2ccc(F)cc2F)c1 [Compound 232],> 100 µg,> 0.1%,0.004%
CC(C)C(=Nc1ccc(C#N)c(F)c1)OCc1cccc(Oc2ccccc2)c1 [Compound 233],10 µg,0.09%,0.0017%
CC(C)C(=Nc1ccc(C(C)(C)C)cc1)OCc1cccc(Oc2ccc(F)cc2)c1 [Compound 235],> 100 µg,> 0.1%,0.004%
Cc1cc(N=C(OCc2cccc(Oc3ccc(F)cc3)c2)C(C)C)ccc1F [Compound 236],7 µg,0.06%,0.0018%
CC(C)C(=Nc1ccc(Cl)cc1)OCc1cccc(Oc2ccc(Br)cc2)c1 [Compound 237],50 µg,0.075%,0.0006%
CC(C)C(=Nc1ccc2c(c1)OC(C)(C)O2)OCc1cccc(Oc2ccc(Cl)cc2)c1 [Compound 241],> 100 µg,> 0.1%,0.0004%
CC(C)C(=Nc1ccc2c(c1)CCO2)OCc1cccc(Oc2ccccc2)c1 [Compound 243],9 µg,> 0.1%,0.005%
CC(C)C(=Nc1ccc2c(c1)OCO2)OCc1cccc(Oc2ccc(C(F)(F)F)cc2)c1 [Compound 246],60 µg,> 0.1%,0.004%
CC(C)C(=Nc1ccc(F)c(Cl)c1)OCc1cccc(Oc2ccc(C(F)(F)F)cc2)c1 [Compound 247],> 100 µg,> 0.1%,0.009%
COc1cc(N=C(OCc2cccc(Oc3ccccc3)c2)C(C)C)cc(OC)c1OC [Compound 248],40 µg,> 0.1%,0.02%
Cc1cccc(N=C(OCc2cccc(Oc3ccccc3)c2)C(C)C)c1C [Compound 249],36 µg,0.0365%,0.0025%
Cc1ccc(C)c(N=C(OCc2cccc(Oc3ccccc3)c2)C(C)C)c1 [Compound 250],38 µg,0.03%,0.004%
CC(C)C(=Nc1ccc(Br)c(Br)c1)OCc1cccc(Oc2ccc(F)cc2)c1 [Compound 251],25 µg,0.06%,0.0005%
CC(C)C(=Nc1ccc(Br)c(Br)c1)OCc1cccc(Oc2ccccc2)c1 [Compound 252],34 µg,0.04%,0.0035%
CC(C)C(=Nc1cccc(Cl)c1)OCc1cccc(Oc2ccc(Br)cc2)c1 [Compound 260],22 µg,> 0.1%,0.00075%
CCC(C)C(=Nc1ccc(F)c(Cl)c1)OCc1ccc(F)c(Oc2ccccc2)c1 (stereo not drawn) [Compound 261],24 µg,0.05%,0.001%
Cc1ccc(Cl)cc1N=C(OCc1cccc(Oc2ccccc2)c1)C(C)C [Compound 263],> 100 µg,> 0.1%,0.05%
COc1ccc(Cl)cc1N=C(OCc1cccc(Oc2ccccc2)c1)C(C)C [Compound 264],> 100 µg,> 0.1%,0.03%
CC(C)C(=Nc1ccc(F)cc1)OCc1cccc(Oc2ccc(F)c(F)c2)c1 [Compound 265],10 µg,0.07%,0.00025%
CC(C)C(=Nc1cccc(SC(F)(F)F)c1)OCc1cccc(Oc2ccc(F)cc2)c1 [Compound 272],> 100 µg,> 0.1%,0.0024%

Compound,LC50 HF [1],LC50 TBW E [2],LC50 CL [3]
CC(C)C(=Nc1ccc2c(c1)OCO2)OCc1cc(Oc2ccc(F)cc2)ccc1Cl [Compound 274],> 100 µg,> 0.1%,0.1%
CC(C)C(=Nc1ccc(F)c(F)c1)OCc1cccc(Oc2ccc(Br)cc2)c1 [Compound 275],21 µg,0.045%,0.00012%
CC(C)C(=Nc1ccc(F)c(Br)c1)OCc1cccc(Oc2ccc(Br)cc2)c1 [Compound 276],39 µg,0.1%,0.002%
CC(C)C(=Nc1ccc(C2CCCCC2)cc1)OCc1cccc(Oc2ccc(F)cc2)c1 [Compound 280],> 100 µg,> 0.1%,0.024%
CC(C)C(=Nc1ccc(C(F)(F)F)cc1)OCc1ccc(F)c(Oc2ccc(F)cc2)c1 [Compound 287],> 100 µg,> 0.1%,0.0025%
CC(C)C(=Nc1cccc(OC(F)(F)C(F)F)c1)OCc1cccc(Oc2ccc(F)cc2)c1 [Compound 288],> 100 µg,> 0.1%,0.0015%
CCC(CC)C(=Nc1ccc(Cl)cc1)OCc1cccc(Oc2ccc(F)cc2)c1 [Compound 290],> 100 µg,> 0.1%,0.017%
CCC(CC)C(=Nc1cccc(C(F)(F)F)c1)OCc1cccc(Oc2ccc(F)cc2)c1 [Compound 291],> 100 µg,> 0.1%,0.004%
CC(Br)C(=Nc1ccc(F)c(Cl)c1)OCc1cccc(Oc2ccc(F)cc2)c1 (stereo not drawn) [Compound 305],> 100 µg,> 0.1%,0.048%
CC(C)C(=Nc1ccc(C(C)(C)C)c(Cl)c1)OCc1cccc(Oc2ccc(F)cc2)c1 [Compound 308],> 100 µg,> 0.1%,0.009%
CC(C)(F)C(=Nc1ccc(F)c(Cl)c1)OCc1cccc(Oc2ccc(F)cc2)c1 [Compound 309],> 100 µg,0.07%,0.00017%
CC(C)C(=Nc1ccc(Cl)cc1Cl)OCc1cccc(Oc2ccccc2)c1 [Compound 311],22 µg,0.1%,0.0017%
CC(C)C(=Nc1ccc(Cl)cc1Cl)OCc1cccc(Oc2ccc(F)cc2)c1 [Compound 312],> 100 µg,> 0.1%,0.006%
CC(C)C(=Nc1ccc2c(c1)OCO2)OCc1ccc(F)c(Oc2ccc(Cl)cc2)c1 [Compound 313],> 100 µg,0.013%,0.00025%
CCC(C)C(=Nc1ccc(C(C)C)cc1)OCc1cccc(Oc2ccccc2)c1 (stereo not drawn) [Compound 317],> 100 µg,0.03%,0.0045%
CC(C)(F)C(=Nc1ccc(F)c(F)c1)OCc1cccc(Oc2ccc(F)cc2)c1 [Compound 318],19 µg,> 0.1%,0.0007%
CC(C)(F)C(=Nc1cccc(C(F)(F)F)c1)OCc1cccc(Oc2ccc(F)cc2)c1 [Compound 319],44 µg,> 0.1%,0.0007%
CCC(=Nc1ccc(C(C)C)cc1)OCc1cccc(Oc2ccc(F)cc2)c1 [Compound 320],> 100 µg,> 0.1%,0.0075%
CCC(CC)C(=Nc1ccc(C(C)C)cc1)OCc1cccc(Oc2ccccc2)c1 [Compound 321],> 100 µg,> 0.1%,0.05%
CC(C)c1ccc(N=C(OCc2cccc(Oc3ccc(F)cc3)c2)C(C)(C)C)cc1 [Compound 322],> 100 µg,> 0.1%,0.007%
CC(C)C(=Nc1ccc(F)c(Cl)c1)OCc1cc(F)cc(Oc2ccc(F)cc2)c1 [Compound 327],> 100 µg,> 0.1%,0.005%
